This passage reports Kd, IC50 and inhibition results from patent EP3057950B1, “PHENYL LINKED QUINOLINYL MODULATORS OF ROR-GAMMA-T” (Janssen Pharmaceutica NV, priority 2013, dated 2015).

Test [1] has as its target T1, wild type human RORγt ligand binding domain (RORγt LBD) (Homo sapiens, UniProt P51449).
T1 construct: His-tag (N); TurboTEV protease cleavage site (ENLYFQG) (N); made in house; host or cells: E. coli (pHIS1, modified pET expression vector)
T1 sequence (P51449 269-508 limits assumed): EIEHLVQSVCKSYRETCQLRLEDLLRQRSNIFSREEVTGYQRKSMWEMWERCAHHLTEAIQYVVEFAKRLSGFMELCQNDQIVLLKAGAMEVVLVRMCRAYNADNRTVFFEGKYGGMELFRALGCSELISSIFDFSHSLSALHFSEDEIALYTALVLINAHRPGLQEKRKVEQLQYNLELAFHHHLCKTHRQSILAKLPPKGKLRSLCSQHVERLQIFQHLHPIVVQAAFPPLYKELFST
Briefly: RORγt ThermoFluor® Assay (thermal shift, binding affinity). Particulars: pH 7.0, estimated from concentration response curves. The protocol: This approach is applicable to a wide variety of systems, and rigorous in theoretical interpretation through quantitation of equilibrium binding constants (KD).
The shift in the melting point described as a ΔTm is proportional to the concentration and affinity of the ligand.
Protein and compound solutions are dispensed into black 384-well polypropylene PCR microplates (Abgene) and overlayed with silicone oil (1 µL, Fluka, type DC 200) to prevent evaporation.
Bar-coded assay plates are robotically loaded onto a thermostatically controlled PCR-type thermal block and then heated at a typical ramp-rate of 1 °C/min for all experiments. Fluorescence was measured by continuous illumination with UV light (Hamamatsu LC6) supplied via fiber optic and filtered through a band-pass filter (380-400 nm; >6 OD cutoff). Fluorescence emission of the entire 384-well plate was detected by measuring light intensity using a CCD camera (Sensys, Roper Scientific) filtered to detect 500 ± 25 nm, resulting in simultaneous and independent readings of all 384 wells. Images were collected at each temperature, and the sum of the pixel intensity in a given area of the assay plate was recorded versus temperature. Reference wells contained RORγt without compounds, and the assay conditions were as follows: • 0.065 mg/mL RORγt • 60 µM 1,8-ANS • 100 mM Hepes, pH 7.0 • 10 mM NaCl • 2.5 mM GSH • 0.002% Tween-20
Project compounds were arranged in a pre-dosed mother plate (Greiner Bio-one) wherein compounds are serially diluted in 100% DMSO by 1:2 from a high concentration of 10 mM over 12 columns within a series (column 12 is a reference well containing DMSO, no compound). The compounds were robotically dispensed directly into assay plates (1x = 46 nL) using a Hummingbird capillary liquid handling instrument (Digilab). Following compound dispense, protein and dye in buffer was added to achieve the final assay volume of 3 µL, followed by 1 µL of silicone oil.

The target in test [2] is T2, wild type human RORγt LBD (Homo sapiens, UniProt P51449).
T2 construct: expressed in transfected cells; host or cells: HEK293T
T2 sequence (P51449 269-508 limits assumed): T1 sequence (P51449 269-508 limits assumed)
Briefly: RORγt Reporter Assay (GAL4-RORγt LBD luciferase in HEK293T cells). The test is classed as cell-based. The conditions noted are these: for IC50: compounds for 24 hours; for inhibition at 6 µM: HEK-293T. The text has this: A reporter assay was used to test functional activity of RORγt modulatory compounds on transcriptional activation driven by the RORγt LBD. Cells used in the assay were co-transfected with two constructs. The first construct, pBIND-RORγt LBD, contained the wild type human RORγt LBD fused to the DNA binding domain of the GAL4 protein. The second construct, pGL4.31 (Promega Cat no. C935A), contained multiple GAL4 responsive DNA elements upstream of firefly luciferase. […] The mutant construct was called pBIND-RORγt-AF2.
The pBIND vector contains the GAL4 DNA Binding Domain (GAL4 DBD) and the renilla luciferase gene under control of the SV40 promoter. Renilla luciferase expression serves as a control for transfection efficiency and cell viability.
The reporter assay was performed by transiently transfecting HEK293T cells with 5 µg of pBIND-RORγt LBD or pBIND-RORγt LBD-AF2 and 5 µg pGL4.31 (Promega Cat no. C935A) using Fugene 6 (Invitrogen Cat no. E2691) at a 1:6 ratio of DNA: Fugene 6 in a T-75 flask in which cells were at least 80% confluent. Twenty four hours after bulk transfection, cells were plated into 96-well plates at 50,000 cells/well in phenol-red free DMEM containing 5% Lipid Reduced FCS and Pen/Strep. Six hours after plating, cells were treated with compounds for 24 hours. Media was removed and cells were lysed with 50 µL 1x Glo Lysis Buffer (Promega). Dual Glo Luciferase Reagent (50 µL/well) was then added and firefly luciferase luminescence was read on an Envision after a ten minute incubation. Finally, Stop and Glo reagent (50 µL/well) was added and renilla luciferase luminescence was read on an Envision instrument after a ten minute incubation. To calculate the effect of compounds on RORγt activity, the ratio of firefly to renilla luciferase was determined and plotted against compound concentration. Agonist compounds increase RORγt-driven luciferase expression, and antagonist or inverse agonist compounds decrease luciferase expression.
Background: Reporter assays use an easily measured gene product as a stand-in for the process of interest.

Where [3] appears, read: HEK293T cells, read-out: RORγt reporter Assay, IC50.
Where [4] appears, read: read-out: RORγt reporter Assay, % inhibition @ 6 µM, @ 6 µM, HEK293T cells.

Molecules are shown by their SMILES. Counter-ions that a name gives are not always drawn. Like-named read-outs stand apart in the source and are kept apart here. Where only a bound is given, the exact number is not on record here.

For orientation: Kd means a measure of binding affinity in units of concentration. One may read the IC50 as the concentration at which inhibition is half-maximal. As usually defined, the inhibition is the relative decrease from the control value, in per cent.

On to `COc1c(-c2ccccc2)c(Cl)nc2ccc(C(O)(c3sc(C)nc3C)c3cncn3C)cc12` (stereo not drawn) [Example 38, (2-Chloro-4-methoxy-3-phenylquinolin-6-yl)(2,4-dimethylthiazol-5-yl)(1-methyl-1H-imidazol-5-yl)methanol•TFA], for which the Kd in test [1] was 0.26 nM. Also, the IC50 in test [2] (setting [3]) amounted to 0.03 µM. In addition, the inhibition at 6 µM in test [2] (setting [4]) amounted to 93%.

In the case of `Cc1ncc(C(O)(c2ccc3nc(Cl)c(-c4ccccc4)c(Cl)c3c2)c2cnnn2C)n1C` (stereo not drawn) [Example 39, (2,4-Dichloro-3-phenylquinolin-6-yl)(1,2-dhnethyl-1H-imidazol-5-yl)(1-methyl-1H-1,2,3-triazol-5-yl)methanol], the Kd in test [1] is 5.2 nM. The IC50 in test [2] (setting [3]) worked out at 0.034 µM. Further, the inhibition at 6 µM in test [2] (setting [4]) worked out at 103%.

Regarding `COc1c(-c2ccccc2)c(Cl)nc2ccc(C(O)(c3cnnn3C)c3cnc(C)n3C)cc12` (stereo not drawn) [Example 40a, (2-Chloro-4-metboxy-3-phenylquinolin-6-yl)(1,2-dimethyl-1H-imidazol-5-yl)(1-methyl-1H-1,2,3-triazol-5-yl)methanol•TFA], the Kd in test [1] is 1.5 nM. The IC50 in test [2] (setting [3]) is 0.023 µM. Besides, the inhibition at 6 µM in test [2] (setting [4]) turned out to be 104%.

With `COc1nc2ccc(C(O)(c3cnnn3C)c3cnc(C)n3C)cc2c(Cl)c1-c1ccccc1` (stereo not drawn) [Example 41a, (4-Chloro-2-methoxy-3-phenylquinolin-6-yl)(1,2-dimethyl-1H-imidazol-5-yl)(1-methyl-1H-1,2,3-triazol-5-yl)methanol•TFA], the Kd in test [1] was 89 nM. In addition, in test [2] (setting [3]), the IC50 was determined as 0.32 µM. Besides, the inhibition at 6 µM in test [2] (setting [4]) is 98%.

As to `CSc1nc2ccc(C(O)(c3sc(C)nc3C)c3cncn3C)cc2c(SC)c1-c1ccccc1` (stereo not drawn) [Example 42, (2,4-Bis(methylthio)-3-phenylquinolin-6-yl)(2,4-dimethylthiazol-5-yl)(1-methyl-1H-imidazol-5-yl)methanol•TFA], the Kd in test [1] is 0.51 nM. In test [2] (setting [3]), the IC50 worked out at 0.017 µM. Besides, the inhibition at 6 µM in test [2] (setting [4]) is 103%.

In the case of `CSc1nc2ccc(C(O)(c3sc(C)nc3C)c3cncn3C)cc2c(Cl)c1-c1ccccc1` (stereo not drawn) [Example 43, (4-Chloro-2-(methylthio)-3-phenylquinolin-6-yl)(2,4-dimethylthiazol-5-yl)(1-methyl-1H-imidazol-5-yl)methanol•TFA], in test [1], the Kd was 3.5 nM. Further, the IC50 in test [2] (setting [3]) was determined as 0.039 µM. Moreover, the inhibition at 6 µM in test [2] (setting [4]) worked out at 98%.

Turning to `Cn1cncc1C(O)(c1ccc(Cl)cc1)c1ccc2nc(OCCN3CC3)c(-c3ccccc3)c(Cl)c2c1` (stereo not drawn) [Example 44, [2-(2-Aziridin-1-ylethoxy)-4-chloro-3-phenylquinolin-6-yl](4-chlorophenyl)(1-methyl-1H-imidazol-5-yl)methanol], in test [1], the Kd was 5400 nM. For the same compound, the inhibition at 6 µM in test [2] (read-out: RORγt reporter Assay, % inhibition @ 6 µM) turned out to be 31%. For the same compound, in test [2] (RORγt reporter Assay, IC50 (µM), HEK293T cells), the IC50 was > 6 µM.

For `Cn1cncc1C(O)(c1ccc(Cl)cc1)c1ccc2nc(OCC(F)(F)F)c(-c3ccccc3)c(Cl)c2c1` (stereo not drawn) [Example 45, (4-Chlorophenyl)[4-chloro-3-phenyl-2-(2,2,2-trifluoroethoxy)quinolin-6-yl](1-methyl-1H-imidazol-5-yl)methanol•TFA], the Kd in test [1] is 770 nM. Moreover, the concentration for half-maximal inhibition (IC50) in test [2] (setting [3]) amounted to 0.57 µM. Further, the inhibition at 6 µM in test [2] (setting [4]) was determined as 93%.

`CN(CCO)c1nc2ccc(C(O)(c3ccc(Cl)cc3)c3cncn3C)cc2c(Cl)c1-c1ccccc1` (stereo not drawn) [Example 46, 2-[{4-Chloro-6-[(4-chlorophenyl)(hydroxy)(1-methyl-1H-imidazol-5-yl)methyl]-3-phenylquinolin-2-yl}(methyl)amino]ethanol•TFA]: the Kd in test [1] was 230 nM. Besides, in test [2] (setting [3]), the IC50 is 0.83 µM. Also, the inhibition at 6 µM in test [2] (setting [4]) was 106%.

Take `Cc1nc(C)c(C(O)(c2ccc3nc(C#N)c(-c4ccccc4)c(C#N)c3c2)c2cnnn2C)s1` (stereo not drawn) [Example 47a, 6-((2,4-Dimethylthiazol-5-yl)(hydroxy)(1-methyl-1H-1,2,3-triazol-5-yl)methyl)-3-phenylquinoline-2,4-dicarbonitrile]: in test [1], the Kd is 8.3 nM. In addition, the IC50 in test [2] (setting [3]) stood at 0.04 µM. Besides, the inhibition at 6 µM in test [2] (setting [4]) was found to be 98%.

As to `COCCOc1nc2ccc(C(O)(c3ccc(Cl)cc3)c3cncn3C)cc2c(Cl)c1-c1ccccc1` (stereo not drawn) [Example 48, [4-Chloro-2-(2-methoxyethoxy)-3-phenylquinolin-6-yl](4-chlorophenyl)(1-methyl-1H-imidazol-5-yl)methanol], in test [1], the Kd is 810 nM. Further, the IC50 in test [2] (setting [3]) stood at 0.67 µM. The inhibition at 6 µM in test [2] (setting [4]) stood at 103%.

Consider `COCCN(C)c1nc2ccc(C(O)(c3ccc(Cl)cc3)c3cncn3C)cc2c(Cl)c1-c1ccccc1` (stereo not drawn) [Example 50, {4-Chloro-2-[(2-methoxyethyl)(methyl)amino]-3-phenylquinolin-6-yl}(4-chlorophenyl)(1-methyl-1H-imidazol-5-yl)methanol], for which the Kd in test [1] was 90 nM. In addition, in test [2] (setting [3]), the IC50 was 0.031 µM. For the same compound, the inhibition at 6 µM in test [2] (setting [4]) turned out to be 99%.

As to `CCC(=O)NCCOc1nc2ccc(C(O)(c3ccc(Cl)cc3)c3cncn3C)cc2c(Cl)c1-c1ccccc1` (stereo not drawn) [Example 51, N-[2-({4-Chloro-6-[(4-chlorophenyl)(hydroxy)(1-methyl-1H-imidazol-5-yl)methyl]-3-phenylquinolin-2-yl}oxy)ethyl]propanamide], the Kd in test [1] is 1100 nM. Moreover, in test [2] (setting [3]), the IC50 was found to be 1.1 µM. Also, the inhibition at 6 µM in test [2] (setting [4]) worked out at 96%.

On to `Cn1cncc1C(O)(c1ccc(Cl)cc1)c1ccc2nc(OCCN)c(-c3ccccc3)c(Cl)c2c1` (stereo not drawn) [Example 52, [2-(2-Aminoethoxy)4-chloro-3-phenylquinolin-6-yl](4-chlorophenyl)(1-methyl-1H-imidazol-5-yl)methanol], for which, in test [1], the Kd is 3500 nM. Further, in test [2] (setting [3]), the IC50 is ~6 µM. For the same compound, in test [2] (setting [4]), the inhibition at 6 µM came to 52%.

As for `Cn1cncc1C(O)(c1ccc(C(F)(F)F)nc1)c1ccc2nc(OCC(F)(F)F)c(-c3ccccc3)c(Cl)c2c1` (stereo not drawn) [Example 54, [4-Chloro-3-phenyl-2-(2,2,2-trifluoroethoxy)quinolin-6-yl](1-methyl-1H-imidazol-5-yl)[6-(trifluoromethyl)pyridin-3-yl]methanol], the Kd in test [1] was 380 nM. The IC50 in test [2] (setting [3]) is 0.44 µM. Besides, in test [2] (setting [4]), the inhibition at 6 µM turned out to be 102%.

Consider `Cn1cncc1C(O)(c1ccc2nc(Cl)c(-c3ccccc3)c(Cl)c2c1)c1ncccn1` (stereo not drawn) [Example 55, (2,4-Dichloro-3-phenylquinolin-6-yl)(1-methyl-1H-imidazol-5-yl)pyrimidin-2-ylmethanol], for which the Kd in test [1] is 3300 nM. Besides, the half-maximal inhibitory concentration (IC50) in test [2] (setting [3]) is ~3 µM. In test [2] (setting [4]), the inhibition at 6 µM was 70%.

For the compound `CON(C)c1nc2ccc(C(O)(c3ccc(C(F)(F)F)nc3)c3cncn3C)cc2c(Cl)c1-c1ccccc1` (stereo not drawn) [Example 56, {4-Chloro-2-[methoxy(methyl)amino]-3-phenylquinolin-6-yl}(1-methyl-1H-imidazol-5-yl)[6-(trifluoromethyl)pyridin-3-yl]methanol], in test [1], the equilibrium dissociation constant (Kd) was 60 nM. The IC50 in test [2] (setting [3]) was determined as 0.023 µM. For the same compound, in test [2] (setting [4]), the inhibition at 6 µM worked out at 102%.
